# Experimental data from PubChem BioAssay AID2060894 (Molecular Pharmacology Branch, DTP, NCI, 2025).
# System: K12877-001-R-J1-PDC complex spheroid viability
# Assay: Anticancer human tumor K12877-001-R-J1-PDC patient-derived lung adenocarcinoma cell line growth inhibition [RAS]
# Conditions: for IC50: curve of first compound; for viability, T/C: stronger effect = lower value
# Summary of the method: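 Multi-cell-type spheroids: tumor cells plus HUVEC endothelial cells and mesenchymal stem cells. RAS-pathway inhibitors were combined with targeted agents, each dosed in half-log steps down from clinical Cmax, or from 10 microM when Cmax was unknown.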
# [1] = second compound 0.00316 µM, first compound 0.000949 µM
# [2] = second compound 0.00316 µM, first compound 0.003 µM
# [3] = second compound 0.00316 µM, first compound 0.00949 µM
# [4] = second compound 0.00316 µM, first compound 0.03 µM
# [5] = second compound 0.00316 µM, first compound 0.0949 µM
# [6] = second compound 0.00316 µM, first compound 0.3 µM
# [7] = second compound 0.01 µM, first compound 0.000949 µM
# [8] = second compound 0.01 µM, first compound 0.003 µM
# [9] = second compound 0.01 µM, first compound 0.00949 µM
# [10] = second compound 0.01 µM, first compound 0.03 µM
# [11] = second compound 0.01 µM, first compound 0.0949 µM
# [12] = second compound 0.01 µM, first compound 0.3 µM
# [13] = second compound 0.0316 µM, first compound 0.000949 µM
# [14] = second compound 0.0316 µM, first compound 0.003 µM
# [15] = second compound 0.0316 µM, first compound 0.00949 µM
# [16] = second compound 0.0316 µM, first compound 0.03 µM
# [17] = second compound 0.0316 µM, first compound 0.0949 µM
# [18] = second compound 0.0316 µM, first compound 0.3 µM
# [19] = second compound 0.1 µM, first compound 0.000949 µM
# [20] = second compound 0.1 µM, first compound 0.003 µM
# [21] = second compound 0.1 µM, first compound 0.00949 µM
# [22] = second compound 0.1 µM, first compound 0.03 µM
# [23] = second compound 0.1 µM, first compound 0.0949 µM
# [24] = second compound 0.1 µM, first compound 0.3 µM
# [25] = second compound 0.316 µM, first compound 0.000949 µM
# [26] = second compound 0.316 µM, first compound 0.003 µM
# [27] = second compound 0.316 µM, first compound 0.00949 µM
# [28] = second compound 0.316 µM, first compound 0.03 µM
# [29] = second compound 0.316 µM, first compound 0.0949 µM
# [30] = second compound 0.316 µM, first compound 0.3 µM
# [31] = second compound 1 µM, first compound 0.000949 µM
# [32] = second compound 1 µM, first compound 0.003 µM
# [33] = second compound 1 µM, first compound 0.00949 µM
# [34] = second compound 1 µM, first compound 0.03 µM
# [35] = second compound 1 µM, first compound 0.0949 µM
# [36] = second compound 1 µM, first compound 0.3 µM
# 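Note: spheroids exposed to agents for one week before readout.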
# 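Throughout, for viability, T/C: tumour cells co-cultured with HUVEC and mesenchymal stem cells in spheroids.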
structure (smiles),measurement,setting,value
CC(=O)OC12COC1CC(O)C1(C)C(=O)C(O)C3=C(C)C(OC(=O)C(O)C(NC(=O)OC(C)(C)C)c4ccccc4)CC(O)(C(OC(=O)c4ccccc4)C21)C3(C)C (stereo unspecified) + C=CC(=O)N1CCN(c2nc(OCC3CCCN3C)nc3c(F)c(-c4nc(N)cc(C)c4C(F)(F)F)c(Cl)cc23)C(C)C1,IC50,second compound 0.00316 µM,< 31.6 nM
same,IC50,second compound 0.01 µM,< 31.6 nM
same,IC50,second compound 0.0316 µM,< 31.6 nM
same,IC50,second compound 0.1 µM,< 31.6 nM
same,IC50,second compound 0.316 µM,< 31.6 nM
same,IC50,second compound 1 µM,< 31.6 nM
same,"viability, T/C","second compound 0.00316 µM, first compound 0.0316 µM",5.23%
same,"viability, T/C","second compound 0.00316 µM, first compound 0.1 µM",4.77%
same,"viability, T/C","second compound 0.00316 µM, first compound 0.316 µM",3.44%
same,"viability, T/C","second compound 0.00316 µM, first compound 1 µM",4.18%
same,"viability, T/C","second compound 0.00316 µM, first compound 3.16 µM",4.77%
same,"viability, T/C","second compound 0.00316 µM, first compound 10 µM",16.1%
same,"viability, T/C","second compound 0.01 µM, first compound 0.0316 µM",5.39%
same,"viability, T/C","second compound 0.01 µM, first compound 0.1 µM",5.01%
same,"viability, T/C","second compound 0.01 µM, first compound 0.316 µM",3.61%
same,"viability, T/C","second compound 0.01 µM, first compound 1 µM",2.92%
same,"viability, T/C","second compound 0.01 µM, first compound 3.16 µM",3.84%
same,"viability, T/C","second compound 0.01 µM, first compound 10 µM",13.6%
same,"viability, T/C","second compound 0.0316 µM, first compound 0.0316 µM",6.48%
same,"viability, T/C","second compound 0.0316 µM, first compound 0.1 µM",4.68%
same,"viability, T/C","second compound 0.0316 µM, first compound 0.316 µM",3.7%
same,"viability, T/C","second compound 0.0316 µM, first compound 1 µM",2.91%
same,"viability, T/C","second compound 0.0316 µM, first compound 3.16 µM",3.42%
same,"viability, T/C","second compound 0.0316 µM, first compound 10 µM",10.1%
same,"viability, T/C","second compound 0.1 µM, first compound 0.0316 µM",6.61%
same,"viability, T/C","second compound 0.1 µM, first compound 0.1 µM",4.59%
same,"viability, T/C","second compound 0.1 µM, first compound 0.316 µM",2.95%
same,"viability, T/C","second compound 0.1 µM, first compound 1 µM",3.77%
same,"viability, T/C","second compound 0.1 µM, first compound 3.16 µM",5.42%
same,"viability, T/C","second compound 0.1 µM, first compound 10 µM",11.1%
same,"viability, T/C","second compound 0.316 µM, first compound 0.0316 µM",5.94%
same,"viability, T/C","second compound 0.316 µM, first compound 0.1 µM",3.96%
same,"viability, T/C","second compound 0.316 µM, first compound 0.316 µM",3.29%
same,"viability, T/C","second compound 0.316 µM, first compound 1 µM",3.54%
same,"viability, T/C","second compound 0.316 µM, first compound 3.16 µM",4.12%
same,"viability, T/C","second compound 0.316 µM, first compound 10 µM",10.3%
same,"viability, T/C","second compound 1 µM, first compound 0.0316 µM",4.92%
same,"viability, T/C","second compound 1 µM, first compound 0.1 µM",3.77%
same,"viability, T/C","second compound 1 µM, first compound 0.316 µM",4.87%
same,"viability, T/C","second compound 1 µM, first compound 1 µM",4.09%
same,"viability, T/C","second compound 1 µM, first compound 3.16 µM",4.48%
same,"viability, T/C","second compound 1 µM, first compound 10 µM",11%
CC1(C)CCC(Nc2ncc(C(F)(F)F)c(-c3c[nH]c4c(P(C)(C)=O)c(C#N)ccc34)n2)CN1 (stereo unspecified) + C=CC(=O)N1CCN(c2nc(OCC3CCCN3C)nc3c(F)c(-c4nc(N)cc(C)c4C(F)(F)F)c(Cl)cc23)C(C)C1,IC50,second compound 0.00316 µM,32.5 nM
same,IC50,second compound 0.01 µM,76 nM
same,IC50,second compound 0.0316 µM,46.6 nM
same,IC50,second compound 0.1 µM,38.5 nM
same,IC50,second compound 0.316 µM,59 nM
same,IC50,second compound 1 µM,98 nM
same,"viability, T/C",[1],107%
same,"viability, T/C",[2],85.1%
same,"viability, T/C",[3],74.4%
same,"viability, T/C",[4],53.2%
same,"viability, T/C",[5],30.1%
same,"viability, T/C",[6],36.3%
same,"viability, T/C",[7],92.3%
same,"viability, T/C",[8],78.3%
same,"viability, T/C",[9],62.5%
same,"viability, T/C",[10],59.1%
same,"viability, T/C",[11],47.4%
same,"viability, T/C",[12],43.4%
same,"viability, T/C",[13],87%
same,"viability, T/C",[14],73.6%
same,"viability, T/C",[15],63.9%
same,"viability, T/C",[16],57.2%
same,"viability, T/C",[17],42%
same,"viability, T/C",[18],33.1%
same,"viability, T/C",[19],80.1%
same,"viability, T/C",[20],76.8%
same,"viability, T/C",[21],63.8%
same,"viability, T/C",[22],52.6%
same,"viability, T/C",[23],41.6%
same,"viability, T/C",[24],32.9%
same,"viability, T/C",[25],87.7%
same,"viability, T/C",[26],79.6%
same,"viability, T/C",[27],66.2%
same,"viability, T/C",[28],54.8%
same,"viability, T/C",[29],48.1%
same,"viability, T/C",[30],35.1%
same,"viability, T/C",[31],85.6%
same,"viability, T/C",[32],77.6%
same,"viability, T/C",[33],70.5%
same,"viability, T/C",[34],62.8%
same,"viability, T/C",[35],49.7%
same,"viability, T/C",[36],38.3%
CCc1c2c(nc3ccc(O)cc13)-c1cc3c(c(=O)n1C2)COC(=O)[C@]3(O)CC + C=CC(=O)N1CCN(c2nc(OCC3CCCN3C)nc3c(F)c(-c4nc(N)cc(C)c4C(F)(F)F)c(Cl)cc23)C(C)C1,IC50,second compound 0.00316 µM,5.1 nM
same,IC50,second compound 0.01 µM,4.8 nM
same,IC50,second compound 0.0316 µM,4.04 nM
same,IC50,second compound 0.1 µM,4.57 nM
same,IC50,second compound 0.316 µM,4.75 nM
same,IC50,second compound 1 µM,4.35 nM
same,"viability, T/C",[1],88.5%
same,"viability, T/C",[2],84%
same,"viability, T/C",[3],10.2%
same,"viability, T/C",[4],4.07%
same,"viability, T/C",[5],2.12%
same,"viability, T/C",[6],1.09%
same,"viability, T/C",[7],89%
same,"viability, T/C",[8],77.8%
same,"viability, T/C",[9],9.78%
same,"viability, T/C",[10],4.25%
same,"viability, T/C",[11],2.46%
same,"viability, T/C",[12],1.37%
same,"viability, T/C",[13],88.3%
same,"viability, T/C",[14],64.4%
same,"viability, T/C",[15],8.38%
same,"viability, T/C",[16],4.14%
same,"viability, T/C",[17],2.38%
same,"viability, T/C",[18],1.15%
same,"viability, T/C",[19],75.2%
same,"viability, T/C",[20],73.2%
same,"viability, T/C",[21],9.95%
same,"viability, T/C",[22],2.92%
same,"viability, T/C",[23],1.65%
same,"viability, T/C",[24],1.21%
same,"viability, T/C",[25],83.4%
same,"viability, T/C",[26],77.9%
same,"viability, T/C",[27],7.81%
same,"viability, T/C",[28],3.82%
same,"viability, T/C",[29],2.34%
same,"viability, T/C",[30],2.52%
same,"viability, T/C",[31],82.2%
same,"viability, T/C",[32],69.9%
same,"viability, T/C",[33],8.23%
same,"viability, T/C",[34],5.41%
same,"viability, T/C",[35],2.4%
same,"viability, T/C",[36],1.32%
